From patent US20240216357A1 (SICHUAN HUIYU PHARMACEUTICAL CO., LTD., priority 2021, published 2024)
Where a name gives a salt, the structure may show the parent alone. Read-outs that look alike come from different tables or passages of the source.

Legend:
[1] = molecular target: voltage-gated potassium ion channel hERG (Homo sapiens (Human), UniProt Q12809); experiment: hERG inhibition test (manual patch-clamp)
Caco-2 permeability test = conditions: human, Caco-2
Rat PK test (IV and PO) = conditions: for Cl / F: Male SD rats; for F: PO vs IV; for AUC(0-inf) / Cmax / half-life / Vd: male, SD, rat, plasma; for Vd: intravenous
NCI-H1417 cells = experiment: In vitro cell proliferation detection (CellTiter-Glo, 7 days); format: cell-based; conditions: Homo sapiens
LSD1 = LSD1 (Homo sapiens (Human), UniProt O60341); experiment: LSD1 enzyme activity detection (HTRF); format: biochemical; conditions: HTRF, H3K4me1 substrate; read-out: Inhibition of enzymatic activity of LSD1 IC50
CYP3A4 = CYP3A4 (Homo sapiens (Human), UniProt P08684); experiment: CYP 450 enzyme inhibition test (mixed human liver microsomes, LC-MS/MS)
in vitro = conditions: human, Caco-2
[2] = read-out: hERG IC50, manual patch-clamp
[3] = 168 h, NCI-H1417 cells, 7 days, CellTiter-Glo, read-out: NCI-H1417 proliferation inhibition IC50
[4] = read-out: CYP3A4-T IC50, mixed human liver microsomes, NADPH, CYP3A4-T probe substrate
For Cmax in this document: test concentration or dose not given here.

Sequence of CYP3A4 (P08684 whole entry): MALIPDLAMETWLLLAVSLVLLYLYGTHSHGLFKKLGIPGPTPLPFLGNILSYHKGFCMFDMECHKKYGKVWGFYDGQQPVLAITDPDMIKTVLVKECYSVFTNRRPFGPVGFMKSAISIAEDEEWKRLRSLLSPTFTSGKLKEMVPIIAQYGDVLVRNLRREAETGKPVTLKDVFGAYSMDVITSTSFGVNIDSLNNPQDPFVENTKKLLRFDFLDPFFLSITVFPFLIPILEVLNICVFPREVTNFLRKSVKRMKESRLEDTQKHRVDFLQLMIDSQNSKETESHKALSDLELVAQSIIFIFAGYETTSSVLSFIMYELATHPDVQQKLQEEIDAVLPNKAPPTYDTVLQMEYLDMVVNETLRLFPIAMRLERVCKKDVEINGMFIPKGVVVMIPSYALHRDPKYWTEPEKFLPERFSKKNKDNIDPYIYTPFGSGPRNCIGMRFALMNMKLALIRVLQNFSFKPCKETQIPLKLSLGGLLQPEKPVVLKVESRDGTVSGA
Sequence of voltage-gated potassium ion channel hERG (Q12809 whole entry): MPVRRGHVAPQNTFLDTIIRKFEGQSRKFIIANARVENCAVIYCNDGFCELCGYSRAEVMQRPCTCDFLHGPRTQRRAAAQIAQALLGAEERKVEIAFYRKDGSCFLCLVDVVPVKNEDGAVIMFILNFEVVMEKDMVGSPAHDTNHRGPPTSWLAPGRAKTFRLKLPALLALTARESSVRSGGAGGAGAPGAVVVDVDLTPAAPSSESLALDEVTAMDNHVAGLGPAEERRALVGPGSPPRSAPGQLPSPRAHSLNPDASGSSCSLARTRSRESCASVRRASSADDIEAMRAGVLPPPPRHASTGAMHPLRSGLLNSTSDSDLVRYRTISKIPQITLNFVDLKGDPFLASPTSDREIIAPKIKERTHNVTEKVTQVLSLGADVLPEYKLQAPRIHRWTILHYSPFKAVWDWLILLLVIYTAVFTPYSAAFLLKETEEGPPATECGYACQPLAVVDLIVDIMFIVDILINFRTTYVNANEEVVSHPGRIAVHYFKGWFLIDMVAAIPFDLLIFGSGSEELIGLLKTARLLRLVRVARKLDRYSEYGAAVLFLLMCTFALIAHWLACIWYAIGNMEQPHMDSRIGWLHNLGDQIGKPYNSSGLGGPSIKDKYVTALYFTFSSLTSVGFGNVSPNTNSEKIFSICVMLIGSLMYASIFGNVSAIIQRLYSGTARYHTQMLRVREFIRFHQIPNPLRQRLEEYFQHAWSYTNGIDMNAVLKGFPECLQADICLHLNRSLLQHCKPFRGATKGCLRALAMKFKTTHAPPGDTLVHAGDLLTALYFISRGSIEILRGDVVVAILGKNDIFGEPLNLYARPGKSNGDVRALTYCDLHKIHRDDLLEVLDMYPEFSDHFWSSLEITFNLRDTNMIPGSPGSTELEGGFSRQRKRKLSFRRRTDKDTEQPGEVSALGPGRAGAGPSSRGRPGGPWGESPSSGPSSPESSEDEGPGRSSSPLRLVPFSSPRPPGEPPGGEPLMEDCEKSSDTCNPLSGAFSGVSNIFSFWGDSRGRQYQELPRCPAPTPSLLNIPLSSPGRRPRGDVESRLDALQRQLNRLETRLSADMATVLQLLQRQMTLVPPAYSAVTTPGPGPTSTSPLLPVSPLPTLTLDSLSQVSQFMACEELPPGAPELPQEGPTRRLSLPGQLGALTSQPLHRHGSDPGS

| Compound | IC50 (NCI-H1417 cells; [3]) [nM] | IC50 (LSD1) [nM] | IC50 (CYP3A4; [4]) [nM] | IC50 [1, 2] [nM] | also measured |
| --- | --- | --- | --- | --- | --- |
| O=C(NC1CCOCC1)c1cc(CN[C@@H]2C[C@H]2c2ccc(F)cc2)nc(-c2ccc(N3CCOCC3)cc2)n1 [Example 246, 6-(((1R,2S)-2-(4-fluorophenyl)cyclopropyl)amino)methyl)-2-(4-morpho-linophenyl)-N-(tetrahydro-2H-pyran-4-yl)pyrimidine-4-carboxamide hydrochloride] | 1.78 | 18.1 | – | 8550 | Papp A→B at 120 min (Caco-2 permeability test): 3.59 ×10⁻⁶ cm/s; Papp B→A at 120 min (Caco-2 permeability test): 3.36 ×10⁻⁶ cm/s; efflux ratio at 120 min (Caco-2 permeability test): 0.96; Cl (Rat PK test (IV and PO)): 39.6 mL/min/kg; F (Rat PK test (IV and PO)): 9.54%; AUC(0-inf) (Rat PK test (IV and PO)): 265 ng·h/mL; Cmax (Rat PK test (IV and PO)): 56.2 ng/mL; half-life (Rat PK test (IV and PO)): 4.96 h; Vd (Rat PK test (IV and PO)): 4.22 L/kg |
| COc1ccc(-c2cnc(N3CCC(C)(N)CC3)c(C#N)c2-c2ccc(C#N)c(F)c2)cc1O [Example 80, 2-(4-amino-4-methylpiperidin-1-yl)-4-(4-cyano-3-fluorophenyl)-5-(3-hydroxy-4-methoxyphenyl) )nicotinonitrile hydrochloride] | 1.22 | 1 ± 0.4 | > 10000 | 9330 | – |
| CS(=O)(=O)N1CCN(C(=O)c2cc(CCN[C@@H]3C[C@H]3c3ccc(F)cc3)nc(-c3ccc(-n4cccn4)cc3)n2)CC1 [Example 12, (2-(4-(1H-pyrazol-1-yl)phenyl)-6-(2-(((1R,2S)-2-(4-fluorophenyl)cyclopropyl)amino)ethyl)pyrimidin-4-yl) (4-(methylsulfonyl)piperazin-1-yl)methanone] | – | – | – | – | IC50 (CYP3A4): 5590 nM; IC50 [1]: 4690 nM; Papp A→B at 120 min (Caco-2 permeability test): 5.95 ×10⁻⁶ cm/s; Papp B→A at 120 min (Caco-2 permeability test): 6.92 ×10⁻⁶ cm/s; efflux ratio at 120 min (Caco-2 permeability test): 1.16 |
| COc1ccc(-c2c(-c3ccc(C#N)c(F)c3)nc(N3CCC(N)CC3)n(C)c2=O)cc1F [(CC90011), reference compound] | – | – | > 50000 | – | Papp A→B at 120 min (Caco-2 permeability test): 7.26 ×10⁻⁶ cm/s; Papp B→A at 120 min (Caco-2 permeability test): 41 ×10⁻⁶ cm/s; Cl (Rat PK test (IV and PO)): 94.5 mL/min/kg; F (Rat PK test (IV and PO)): 14.3%; AUC(0-inf) (Rat PK test (IV and PO)): 132 ng·h/mL; Cmax (Rat PK test (IV and PO)): 26 ng/mL; half-life (Rat PK test (IV and PO)): 2.32 h; Vd (Rat PK test (IV and PO)): 19.1 L/kg |
| COc1ccc(-c2c(OC)cc(N3CCC(N)CC3)nc2-c2ccc(C#N)c(F)c2)cc1F [Example 87, 4-(6-(4-aminopiperidin-1-yl)-3-(3-fluoro-4-methoxyphenyl)-4-methoxypyridin-2-yl)-2-fluoroben zonitrile] | 3.29 | 2.82 ± 1.49 | 6740 | – | Papp A→B at 120 min (Caco-2 permeability test): 2.97 ×10⁻⁶ cm/s; Papp B→A at 120 min (Caco-2 permeability test): 3.35 ×10⁻⁶ cm/s; efflux ratio at 120 min (Caco-2 permeability test): 1.13 |
| COc1ccc(-c2c(-c3ccc(C#N)c(F)c3)nc(N3CCC(N)CC3)c3c2OCC(=O)N3)cc1O [Example 280, 4-(5-(4-aminopiperidin-1-yl)-8-(3-hydroxy-4-methoxyphenyl)-3-oxo-3,4-dihydro-2H-pyridine[4,3-b][1,4]oxazin-7-yl)-2-fluorobenzonitrile hydrochloride] | – | – | > 10000 | – | IC50 (NCI-H1417 cells; NCI-H1417, 168 h, read-out: NCI-H1417 proliferation inhibition IC50(nM)): 2.7 ± 1 nM |
| COc1ccc(-c2c(-c3ccc(C#N)c(F)c3)nc(N3CC4CC3CC4N)n3ccnc23)cc1F (centres unmarked) [Example 169, 4-(5-(5-amino-2-azabicyclo[2.2.1]heptane-2-yl)-8-(3-fluoro-4-methoxyphenyl)imidazolo[1,2-c]pyrimidin-7-yl)-2-fluorobenzonitrile hydrochloride] | 4 | 4.3 ± 0.9 | > 10000 | – | – |
| COc1ccc(-c2cnc(N3CC4CC3CC4N)c(C#N)c2-c2ccc(C#N)c(F)c2)cc1O (centres unmarked) [Example 73, 2-(5-amino-2-azabicyclo [2.2.1]heptane-2-yl)-4-(4-cyano-3-fluorophenyl)-5-(3-hydroxy-4-methoxyphenyl) nicotinitrile] | 1.61 | 1.9 ± 0.4 | 7590 | – | – |
| CS(=O)(=O)N1CCN(C(=O)c2cc(CN[C@@H]3C[C@H]3c3ccc(F)cc3)nc(-c3ccc(N4CCOCC4)cc3)n2)CC1 [Example 227] | 3.91 | 42.6 | 14100 | 6290 | – |
| COc1ccc(-c2c(C#N)cc(N3CCC(N)CC3)nc2-c2ccc(C#N)c(F)c2)cc1O [Example 273, 6-(4-aminopiperidin-1-yl)-2-(4-cyano-3-fluorophenyl)-3-(3-hydroxy-4-methoxyphenyl)pyridine-4-carbonitrile] | 1.19 | 0.2 ± 0.05 | > 10000 | – | – |
| Cc1noc2cc(-c3sc(C(=O)N4C5CCC4CC(N)C5)nc3-c3ccc(C#N)c(F)c3)c(F)cc12 (centres unmarked) [Example 220, 4-(2-(3-amino-8-azabicyclo[3.2.1]octane-8-carbonyl)-5-(5-fluoro-3-methylbenzo[d]isoxazol-6-yl)thiazol-4-yl)-2-fluorobenzonitrile hydrochloride] | 1.32 | 0.42 ± 0.06 | – | – | Papp A→B at 120 min (in vitro): 2.3 ×10⁻⁶ cm/s; Papp B→A at 120 min (in vitro): 6.21 ×10⁻⁶ cm/s; efflux ratio at 120 min (in vitro): 2.7 |
| COc1ccc(-c2nc(CN[C@@H]3C[C@H]3c3ccc(F)cc3)cc(C(=O)N3CCN(S(C)(=O)=O)CC3)n2)cc1O [Example 224] | 11.6 | 25.7 | 5540 | 5600 | – |
| N#Cc1ccc(-c2nc(N3CCC(N)CC3)n3ccnc3c2-c2ccc(N3CCOCC3)cc2)cc1F [Example 128, 4-(5-(4-aminopiperidin-1-yl)-8-(4-morpholinophenyl)imidazolo [1,2-c]pyrimidin-7-yl)-2-fluorobenzonitrile] | 6.46 | 4.19 ± 0.11 | > 50000 | 13700 | – |
| CC1CN(C(=O)c2cc(CN[C@@H]3C[C@H]3c3ccc(F)cc3)nc(-c3ccc(C#N)cc3)n2)CC(C)N1 (stereo partly drawn) [Example 239, 4-(4-(3,5-dimethyl-piperazine-1-carbonyl)-6-((((1R,2S)-2-(4-fluoro-phenyl)cyclopropyl)amino)methyl)pyrimidin-2-yl) benzonitrile] | 0.986 | 4.8 ± 1.8 | > 10000 | – | – |

More lines, main results first:

| IC50 (NCI-H1417 cells; [3]) [nM] | IC50 (LSD1) [nM] | IC50 (CYP3A4; [4]) [nM] | Compound | IC50 [1, 2] [nM] | also measured |
| --- | --- | --- | --- | --- | --- |
| 0.885 | 0.5 ± 0.3 | 8710 | N#Cc1ccc(-c2c(-c3ccc(C(F)(F)F)c(O)c3)cnc(N3CCC(N)CC3)c2C#N)cc1F [Example 70, 2-(4-aminopiperidin-1-yl)-4-(4-cyano-3-fluorophenyl)-5-(3-hydroxy-4-(trifluoromethyl)phenyl) nicotinonitrile hydrochloride] | – | – |
| 0.44 | 0.18 ± 0.08 | 54200 | COc1ccc(-c2c(O)cc(N3CCC(N)CC3)nc2-c2ccc(C#N)c(F)c2)cc1O [Example 23, 4-(6-(4-aminopiperidin-1-yl)-4-hydroxy-3-(3-hydroxy-4-methoxyphenyl)pyridin-2-yl)-2-fluorobenzonitrile] | > 30000 | – |
| 0.338 | 0.3 ± 0.2 | 4300 | Cc1noc2cc(-c3cnc(N4CCC(N)CC4)c(C#N)c3-c3ccc(C#N)c(F)c3)c(F)cc12 [Example 71, 2-(4-aminopiperidin-1-yl)-4-(4-cyano-3-fluorophenyl)-5-(5-fluoro-3-methylbenzo[d]isoxazol-6-yl)nicotinonitrile] | – | – |
| 0.386 | 0.35 ± 0.09 | 49900 | Cc1noc2cc(-c3c(-c4ccc(C#N)c(F)c4)nc(N4CCC(N)CC4)n4ccnc34)c(F)cc12 [Example 125, 4-(5-(4-aminopiperidin-1-yl)-8-(5-fluoro-3-methylbenzo[d]isoxazol-6-yl)imidazolo[1,2-c]pyrimidin-7-yl)-2-fluorobenzonitrile] | 9520 | Papp A→B at 120 min (Caco-2 permeability test): 4.27 ×10⁻⁶ cm/s; Papp B→A at 120 min (Caco-2 permeability test): 25 ×10⁻⁶ cm/s; efflux ratio at 120 min (Caco-2 permeability test): 5.84; Cl (Rat PK test (IV and PO)): 60.6 mL/min/kg; F (Rat PK test (IV and PO)): 21.8%; AUC(0-inf) (Rat PK test (IV and PO)): 323 ng·h/mL; Cmax (Rat PK test (IV and PO)): 65 ng/mL; half-life (Rat PK test (IV and PO)): 2.58 h; Vd (Rat PK test (IV and PO)): 14.7 L/kg |
| 0.22 | 0.4 ± 0.2 | > 10000 | COc1ccc(-c2c(-c3ccc(C#N)c(F)c3)nc(N3CC4CC3CC4N)n3ccnc23)cc1O (centres unmarked) [Example 164, 4-(5-(5-amino-2-azabicyclo[2.2. 1]heptan-2-yl)-8-(3-hydroxy-4-methoxyphenyl)imidazolo[1,2-c]pyrimidin-7-yl)-2-fluorobenzonitrile hydrochloride] | – | – |
| 0.2 | 0.2 ± 0.1 | 3650 | COc1ccc(-c2cnc(N3CCC(N)CC3)c(C#N)c2-c2ccc(C#N)c(F)c2)cc1O [Example 66, 2-(4-aminopiperidin-1-yl)-4-(4-cyano-3-fluorophenyl)-5-(3-hydroxy-4-methoxyphenyl)nicotinon itrile hydrochloride] | 15500 | Cl (Rat PK test (IV and PO)): 68.2 mL/min/kg; F (Rat PK test (IV and PO)): 17.7%; AUC(0-inf) (Rat PK test (IV and PO)): 227 ng·h/mL; Cmax (Rat PK test (IV and PO)): 42.5 ng/mL; half-life (Rat PK test (IV and PO)): 1.96 h; Vd (Rat PK test (IV and PO)): 11.3 L/kg |
| 0.272 | 0.3 ± 0.1 | > 10000 | CNC1CCN(c2ncc(-c3ccc(OC)c(O)c3)c(-c3ccc(C#N)c(F)c3)c2C#N)CC1 [Example 79, 4-(4-cyano-3-fluorophenyl)-5-(3-hydroxy-4-methoxyphenyl)-2-(4-(methylamino)piperidin-1-yl) nicotinonitrile hydrochloride] | 4380 | – |
